Test results as given in article PMC4858680, “A platinum-based hybrid drug design approach to circumvent acquired resistance to molecular targeted tyrosine kinase inhibitors” (Scientific Reports, 2016).
Read-outs that look alike come from different tables or passages of the source.

How the values were obtained:
Type in all cases: binding
[1] = molecular target: T1, SRMS (Homo sapiens, UniProt Q9H3Y6); conditions: for remaining binding at 10 µM: read-out: Percent control
T1 construct: purchased DiscoveRx (KINOMEscan service)

[2] = molecular target: T2, FAK (Homo sapiens, UniProt Q05397); conditions: for remaining binding at 10 µM: read-out: Percent control
T2 construct: purchased DiscoveRx KINOMEscan

[3] = molecular target: T3, TYK2(JH1domain-catalytic) (Homo sapiens, UniProt P29597); conditions: for remaining binding at 10 µM: read-out: Percent control; for Percent control: 10 μM
T3 construct: TYK2(JH1domain-catalytic); purchased DiscoveRx (KINOMEscan service)
T3 sequence (P29597 897-1176 limits assumed): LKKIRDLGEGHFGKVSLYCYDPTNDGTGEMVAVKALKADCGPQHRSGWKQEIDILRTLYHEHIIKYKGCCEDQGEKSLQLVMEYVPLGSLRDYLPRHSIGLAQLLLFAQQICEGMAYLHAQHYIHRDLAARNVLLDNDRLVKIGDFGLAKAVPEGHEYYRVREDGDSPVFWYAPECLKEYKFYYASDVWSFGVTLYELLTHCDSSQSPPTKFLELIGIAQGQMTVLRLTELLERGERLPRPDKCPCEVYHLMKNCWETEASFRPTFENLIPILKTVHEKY

[4] = molecular target: T4, TNK2 (Homo sapiens, UniProt Q07912); conditions: for remaining binding at 10 µM: read-out: Percent control
T4 construct: purchased DiscoveRx (KINOMEscan service)

[5] = molecular target: T5, BLK (Homo sapiens, UniProt P51451); conditions: for remaining binding at 10 µM: read-out: Percent control; for Percent control: BLK, 10 μM
T5 construct: purchased DiscoveRx KINOMEscan

[6] = molecular target: T6, MUSK (Homo sapiens, UniProt O15146); conditions: for remaining binding at 10 µM: read-out: Percent control
T6 construct: purchased DiscoveRx KINOMEscan
T6 sequence (O15146 24-869): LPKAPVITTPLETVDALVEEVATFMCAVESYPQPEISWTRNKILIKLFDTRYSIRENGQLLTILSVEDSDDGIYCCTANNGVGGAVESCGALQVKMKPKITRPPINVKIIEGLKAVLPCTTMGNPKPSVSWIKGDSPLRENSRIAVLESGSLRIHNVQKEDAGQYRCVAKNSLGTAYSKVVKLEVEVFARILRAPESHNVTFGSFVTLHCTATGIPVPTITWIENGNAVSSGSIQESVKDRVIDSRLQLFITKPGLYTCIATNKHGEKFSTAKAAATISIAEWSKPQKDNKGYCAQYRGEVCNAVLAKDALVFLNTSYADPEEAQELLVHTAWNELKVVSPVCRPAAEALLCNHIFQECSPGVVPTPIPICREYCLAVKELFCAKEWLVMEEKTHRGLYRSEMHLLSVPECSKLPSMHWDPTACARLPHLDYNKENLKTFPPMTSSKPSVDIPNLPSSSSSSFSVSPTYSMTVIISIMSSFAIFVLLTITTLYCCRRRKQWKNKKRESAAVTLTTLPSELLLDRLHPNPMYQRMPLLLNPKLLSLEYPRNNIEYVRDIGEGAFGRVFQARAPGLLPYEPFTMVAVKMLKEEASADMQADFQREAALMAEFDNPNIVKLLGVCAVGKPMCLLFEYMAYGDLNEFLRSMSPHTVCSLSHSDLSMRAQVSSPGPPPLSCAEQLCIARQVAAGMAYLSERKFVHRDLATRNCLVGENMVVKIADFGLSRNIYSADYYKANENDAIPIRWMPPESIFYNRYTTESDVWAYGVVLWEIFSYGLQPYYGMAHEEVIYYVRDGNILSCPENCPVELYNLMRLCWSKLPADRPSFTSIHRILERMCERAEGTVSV

[7] = molecular target: T7, EPHA7 (Homo sapiens, UniProt Q15375); conditions: for remaining binding at 10 µM: read-out: Percent control
T7 construct: purchased DiscoveRx KINOMEscan

[8] = molecular target: T8, FGFR4 (Homo sapiens, UniProt P22455); conditions: for remaining binding at 10 µM: read-out: Percent control
T8 construct: purchased DiscoveRx KINOMEscan

[9] = molecular target: T9, VEGFR2 (Homo sapiens, UniProt P35968); conditions: for remaining binding at 10 µM: read-out: Percent control; for Percent control: 10 μM
T9 construct: purchased DiscoveRx Corporation (KINOMEscan service)

[10] = molecular target: T10, TRKB (Homo sapiens, UniProt Q16620); conditions: for remaining binding at 10 µM: read-out: Percent control
T10 construct: purchased DiscoveRx (KINOMEscan service)

[11] = molecular target: T11, FES (Homo sapiens, UniProt P07332); conditions: for remaining binding at 10 µM: read-out: Percent control
T11 construct: purchased DiscoveRx KINOMEscan

[12] = molecular target: T12, EPHA2 (Homo sapiens, UniProt P29317); conditions: for remaining binding at 10 µM: read-out: Percent control
T12 construct: purchased DiscoveRx KINOMEscan

[13] = molecular target: T13, TXK (Homo sapiens, UniProt P42681); conditions: for remaining binding at 10 µM: read-out: Percent control; for Percent control: 10 μM
T13 construct: purchased DiscoveRx (KINOMEscan service)
T13 sequence (P42681 1-527): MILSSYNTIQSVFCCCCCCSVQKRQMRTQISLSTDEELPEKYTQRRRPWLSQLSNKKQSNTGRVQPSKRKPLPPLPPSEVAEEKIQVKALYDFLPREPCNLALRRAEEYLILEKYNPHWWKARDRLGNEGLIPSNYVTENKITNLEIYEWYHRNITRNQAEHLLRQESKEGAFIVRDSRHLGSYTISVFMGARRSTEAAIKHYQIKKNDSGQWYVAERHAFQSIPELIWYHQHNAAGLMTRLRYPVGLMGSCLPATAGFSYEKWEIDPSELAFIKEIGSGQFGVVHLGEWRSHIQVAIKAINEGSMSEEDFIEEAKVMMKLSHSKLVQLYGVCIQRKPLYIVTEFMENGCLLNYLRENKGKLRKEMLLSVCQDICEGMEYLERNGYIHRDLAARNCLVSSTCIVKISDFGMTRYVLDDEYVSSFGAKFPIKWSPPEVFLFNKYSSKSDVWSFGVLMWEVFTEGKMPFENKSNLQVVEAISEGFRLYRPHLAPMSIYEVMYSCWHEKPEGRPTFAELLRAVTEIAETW

T1 sequence (Q9H3Y6 whole entry): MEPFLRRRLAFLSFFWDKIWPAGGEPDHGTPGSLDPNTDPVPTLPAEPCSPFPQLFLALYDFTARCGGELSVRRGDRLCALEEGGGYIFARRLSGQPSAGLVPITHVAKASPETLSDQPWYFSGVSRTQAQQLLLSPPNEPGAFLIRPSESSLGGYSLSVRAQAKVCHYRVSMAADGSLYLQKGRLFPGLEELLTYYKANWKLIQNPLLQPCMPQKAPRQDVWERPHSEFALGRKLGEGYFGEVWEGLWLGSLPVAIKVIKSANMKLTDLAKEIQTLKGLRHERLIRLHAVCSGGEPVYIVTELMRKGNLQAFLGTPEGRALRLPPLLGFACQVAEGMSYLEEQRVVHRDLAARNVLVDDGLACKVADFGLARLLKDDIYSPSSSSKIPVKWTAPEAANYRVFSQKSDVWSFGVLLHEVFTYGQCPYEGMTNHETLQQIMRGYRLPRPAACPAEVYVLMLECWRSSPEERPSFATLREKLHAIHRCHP
T2 sequence (Q05397 whole entry): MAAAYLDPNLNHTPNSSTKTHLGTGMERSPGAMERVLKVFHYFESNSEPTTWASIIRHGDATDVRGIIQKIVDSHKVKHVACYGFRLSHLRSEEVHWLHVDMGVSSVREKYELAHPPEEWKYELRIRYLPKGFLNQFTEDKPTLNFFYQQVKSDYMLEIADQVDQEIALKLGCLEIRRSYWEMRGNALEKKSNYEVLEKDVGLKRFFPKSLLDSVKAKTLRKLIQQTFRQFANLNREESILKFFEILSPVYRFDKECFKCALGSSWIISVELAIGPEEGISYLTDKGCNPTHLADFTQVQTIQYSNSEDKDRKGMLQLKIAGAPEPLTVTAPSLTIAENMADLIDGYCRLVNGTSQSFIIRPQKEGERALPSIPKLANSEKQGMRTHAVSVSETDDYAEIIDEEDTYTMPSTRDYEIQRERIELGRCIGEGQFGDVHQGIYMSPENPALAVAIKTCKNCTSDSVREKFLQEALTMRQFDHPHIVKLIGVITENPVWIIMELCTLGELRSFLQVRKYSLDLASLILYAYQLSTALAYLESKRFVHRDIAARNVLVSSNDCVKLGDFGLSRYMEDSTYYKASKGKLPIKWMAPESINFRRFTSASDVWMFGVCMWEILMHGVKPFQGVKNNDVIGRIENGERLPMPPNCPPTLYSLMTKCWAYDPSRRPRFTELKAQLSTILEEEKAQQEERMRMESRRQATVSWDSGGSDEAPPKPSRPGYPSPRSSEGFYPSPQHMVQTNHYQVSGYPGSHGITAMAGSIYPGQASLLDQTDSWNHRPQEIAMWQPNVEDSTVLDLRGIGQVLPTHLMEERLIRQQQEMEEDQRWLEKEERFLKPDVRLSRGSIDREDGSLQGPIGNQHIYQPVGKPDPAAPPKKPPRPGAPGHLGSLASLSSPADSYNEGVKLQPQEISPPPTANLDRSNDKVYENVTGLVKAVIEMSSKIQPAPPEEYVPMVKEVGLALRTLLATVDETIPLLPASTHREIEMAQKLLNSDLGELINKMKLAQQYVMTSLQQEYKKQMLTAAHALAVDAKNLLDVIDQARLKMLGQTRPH
T7 sequence (Q15375 28-998): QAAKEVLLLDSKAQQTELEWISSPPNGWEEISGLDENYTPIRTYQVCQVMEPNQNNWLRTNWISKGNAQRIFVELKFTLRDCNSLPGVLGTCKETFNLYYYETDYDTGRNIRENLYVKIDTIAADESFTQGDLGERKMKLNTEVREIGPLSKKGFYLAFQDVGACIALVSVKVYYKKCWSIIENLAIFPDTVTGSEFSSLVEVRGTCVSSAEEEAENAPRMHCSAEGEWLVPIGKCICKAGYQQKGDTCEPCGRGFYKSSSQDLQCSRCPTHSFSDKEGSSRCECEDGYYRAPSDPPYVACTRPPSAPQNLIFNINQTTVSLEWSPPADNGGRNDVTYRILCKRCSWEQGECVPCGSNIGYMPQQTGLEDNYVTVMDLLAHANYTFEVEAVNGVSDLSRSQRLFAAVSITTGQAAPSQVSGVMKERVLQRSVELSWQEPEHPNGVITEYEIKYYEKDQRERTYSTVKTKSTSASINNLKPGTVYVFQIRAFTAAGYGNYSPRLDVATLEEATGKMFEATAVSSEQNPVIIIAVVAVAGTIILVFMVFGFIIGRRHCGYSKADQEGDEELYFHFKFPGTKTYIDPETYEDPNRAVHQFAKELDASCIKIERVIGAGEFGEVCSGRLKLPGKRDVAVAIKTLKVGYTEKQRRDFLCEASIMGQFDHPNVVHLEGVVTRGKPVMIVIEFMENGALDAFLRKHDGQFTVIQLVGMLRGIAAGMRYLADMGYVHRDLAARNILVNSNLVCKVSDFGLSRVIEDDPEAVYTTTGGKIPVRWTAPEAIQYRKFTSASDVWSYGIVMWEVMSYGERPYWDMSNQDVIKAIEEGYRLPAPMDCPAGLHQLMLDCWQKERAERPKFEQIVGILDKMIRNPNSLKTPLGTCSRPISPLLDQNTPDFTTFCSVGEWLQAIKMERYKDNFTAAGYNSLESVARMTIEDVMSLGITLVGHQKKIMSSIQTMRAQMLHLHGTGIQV
T10 sequence (Q16620 32-822): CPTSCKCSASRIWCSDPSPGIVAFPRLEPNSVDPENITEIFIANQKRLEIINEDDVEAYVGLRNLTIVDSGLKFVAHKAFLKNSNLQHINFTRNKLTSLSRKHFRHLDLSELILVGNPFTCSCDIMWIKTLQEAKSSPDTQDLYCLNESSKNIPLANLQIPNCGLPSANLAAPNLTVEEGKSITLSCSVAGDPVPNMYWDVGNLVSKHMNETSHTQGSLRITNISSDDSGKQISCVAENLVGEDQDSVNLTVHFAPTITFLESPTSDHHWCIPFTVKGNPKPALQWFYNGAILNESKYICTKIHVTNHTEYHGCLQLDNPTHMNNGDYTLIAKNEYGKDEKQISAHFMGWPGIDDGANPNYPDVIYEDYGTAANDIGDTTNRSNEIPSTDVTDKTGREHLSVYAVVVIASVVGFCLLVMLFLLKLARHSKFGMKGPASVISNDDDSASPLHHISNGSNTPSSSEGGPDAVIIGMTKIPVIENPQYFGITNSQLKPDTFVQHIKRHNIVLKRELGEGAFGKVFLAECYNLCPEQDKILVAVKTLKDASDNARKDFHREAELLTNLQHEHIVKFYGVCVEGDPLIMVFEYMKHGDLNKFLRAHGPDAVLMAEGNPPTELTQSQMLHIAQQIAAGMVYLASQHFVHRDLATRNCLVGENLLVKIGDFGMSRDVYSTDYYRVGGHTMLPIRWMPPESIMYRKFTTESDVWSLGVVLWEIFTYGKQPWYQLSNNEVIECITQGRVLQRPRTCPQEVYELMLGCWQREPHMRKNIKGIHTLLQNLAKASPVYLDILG
T12 sequence (P29317 24-976): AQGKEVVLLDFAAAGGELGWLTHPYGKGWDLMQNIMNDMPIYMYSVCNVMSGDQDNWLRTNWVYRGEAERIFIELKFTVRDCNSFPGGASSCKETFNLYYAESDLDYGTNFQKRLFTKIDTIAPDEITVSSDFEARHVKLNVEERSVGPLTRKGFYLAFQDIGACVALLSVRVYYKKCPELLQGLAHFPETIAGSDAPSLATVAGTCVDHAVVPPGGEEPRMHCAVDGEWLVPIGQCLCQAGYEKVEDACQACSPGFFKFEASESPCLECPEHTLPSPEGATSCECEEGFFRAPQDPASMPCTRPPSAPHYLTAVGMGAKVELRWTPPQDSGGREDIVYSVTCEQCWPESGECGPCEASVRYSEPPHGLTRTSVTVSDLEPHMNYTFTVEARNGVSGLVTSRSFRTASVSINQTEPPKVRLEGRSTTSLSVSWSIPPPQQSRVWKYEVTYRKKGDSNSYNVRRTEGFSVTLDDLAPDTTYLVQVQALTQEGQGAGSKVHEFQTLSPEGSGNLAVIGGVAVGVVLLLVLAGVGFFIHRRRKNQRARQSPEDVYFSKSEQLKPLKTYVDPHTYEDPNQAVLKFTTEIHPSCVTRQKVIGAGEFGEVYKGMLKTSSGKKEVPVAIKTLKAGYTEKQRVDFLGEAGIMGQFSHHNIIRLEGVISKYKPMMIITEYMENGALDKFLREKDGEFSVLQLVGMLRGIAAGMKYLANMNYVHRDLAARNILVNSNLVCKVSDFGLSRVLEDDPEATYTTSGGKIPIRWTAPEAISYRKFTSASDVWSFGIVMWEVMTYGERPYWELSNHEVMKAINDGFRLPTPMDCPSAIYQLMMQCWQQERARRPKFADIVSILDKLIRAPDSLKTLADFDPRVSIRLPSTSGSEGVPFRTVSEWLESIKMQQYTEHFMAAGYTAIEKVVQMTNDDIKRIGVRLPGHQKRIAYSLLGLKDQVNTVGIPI
T5 sequence (P51451 whole entry): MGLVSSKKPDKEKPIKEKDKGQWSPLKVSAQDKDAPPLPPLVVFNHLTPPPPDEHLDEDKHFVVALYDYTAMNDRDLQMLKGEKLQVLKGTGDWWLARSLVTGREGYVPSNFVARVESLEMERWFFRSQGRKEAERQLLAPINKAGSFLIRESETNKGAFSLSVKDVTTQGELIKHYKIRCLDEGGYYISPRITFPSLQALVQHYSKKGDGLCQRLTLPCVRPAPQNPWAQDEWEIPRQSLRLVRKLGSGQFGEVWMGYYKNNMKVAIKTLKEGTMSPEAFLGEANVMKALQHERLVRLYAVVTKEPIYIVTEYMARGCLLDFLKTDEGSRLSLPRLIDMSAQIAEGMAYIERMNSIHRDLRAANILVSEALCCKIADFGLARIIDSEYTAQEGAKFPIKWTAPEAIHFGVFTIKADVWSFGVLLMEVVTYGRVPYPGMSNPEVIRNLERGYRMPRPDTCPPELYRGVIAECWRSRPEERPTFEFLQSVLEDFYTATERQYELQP

`C#Cc1cccc(Nc2ncnc3cc(OCCOC)c(OCCOC)cc23)c1` [Erlotinib] showed a remaining binding at 10 µM [1] of 100%, a remaining binding at 10 µM [2] of 100% and a remaining binding at 10 µM [3] of 100%. For the same compound, the remaining binding at 10 µM ([4]; TNK2, 10 μM) was 100%, the remaining binding at 10 µM [5] was 1.9% and the remaining binding at 10 µM [6] was 100%. It also gave a remaining binding at 10 µM [7] of 12.3%, a remaining binding at 10 µM [8] of 100% and a remaining binding at 10 µM [9] of 36.3%. It also gave a remaining binding at 10 µM [10] of 100%, a remaining binding at 10 µM [11] of 100% and a remaining binding at 10 µM [12] of 100%. The remaining binding at 10 µM [13] was 27.5%.
With `Cc1ccc(NC(=O)c2ccc(CN3CCN(C)CC3)cc2)cc1Nc1nccc(-c2cccnc2)[n+]1[Pt-2]1([Cl])[NH2+]C2CCCCC2[NH2+]1` (stereo not drawn) [1b, oxaliplatin-imatinib] the Percent control ([1]; SRMS, 10 μM) was 98%, the Percent control ([2]; FAK, 10 μM) was 90% and the Percent control [3] was 94%. It also gave a Percent control ([4]; TNK2, 10 μM) of 100%, a Percent control [5] of 12% and a Percent control ([6]; MUSK, 10 μM) of 100%. For the same compound, the Percent control ([7]; EPHA7, 10 μM) was 100%, the Percent control ([8]; FGFR4, 10 μM) was 94% and the Percent control [9] was 100%. It also gave a Percent control ([10]; TRKB, 10 μM) of 100%, a Percent control ([11]; FES, 10 μM) of 96% and a Percent control ([12]; EPHA2, 10 μM) of 99%. For the same compound, the Percent control [13] was 87%.
Compound `COc1cc2c(Nc3ccc(Br)cc3F)ncnc2cc1OCC1CCN(C)CC1` [Vandetanib, reference compound] has a remaining binding at 10 µM ([1]; SRMS, 10 μM) of 16%, a remaining binding at 10 µM ([2]; FAK, 10 μM) of 100% and a remaining binding at 10 µM [3] of 100%. The remaining binding at 10 µM ([4]; TNK2, 10 μM) was 100%, the remaining binding at 10 µM [5] was 0.7% and the remaining binding at 10 µM ([6]; MUSK, 10 μM) was 100%. For the same compound, the remaining binding at 10 µM ([7]; EPHA7, 10 μM) was 19.4%, the remaining binding at 10 µM ([8]; FGFR4, 10 μM) was 18.7% and the remaining binding at 10 µM [9] was 7.6%. It also gave a remaining binding at 10 µM ([10]; TRKB, 10 μM) of 100%, a remaining binding at 10 µM ([11]; FES, 10 μM) of 100% and a remaining binding at 10 µM ([12]; EPHA2, 10 μM) of 9.9%. For the same compound, the remaining binding at 10 µM [13] was 27%.
`COc1cc2c(Nc3ccc(Br)cc3F)[n+]([Pt-2]3([Cl])[NH2+]C4CCCCC4[NH2+]3)cnc2cc1OCC1CCN(C)CC1` (stereo not drawn) [3b, oxaliplatin-vandetanib] was tested, and the Percent control ([1]; SRMS, 10 μM) was 95%, the Percent control ([2]; FAK, 10 μM) was 86% and the Percent control [3] was 83%. It also gave a Percent control ([4]; TNK2, 10 μM) of 100%, a Percent control [5] of 1.4% and a Percent control ([6]; MUSK, 10 μM) of 95%. It also gave a Percent control ([7]; EPHA7, 10 μM) of 79%, a Percent control ([8]; FGFR4, 10 μM) of 97% and a Percent control [9] of 3.2%. It also gave a Percent control ([10]; TRKB, 10 μM) of 72%, a Percent control ([11]; FES, 10 μM) of 100% and a Percent control ([12]; EPHA2, 10 μM) of 43%. For the same compound, the Percent control [13] was 56%.
Compound `C#Cc1cccc(Nc2c3cc(OCCOC)c(OCCOC)cc3nc[n+]2[Pt@SP2-2]([NH3+])([NH3+])[Cl])c1` [2a, cisplatin-erlotinib] has a Percent control ([1]; SRMS, 10 μM) of 94%, a Percent control ([2]; FAK, 10 μM) of 94% and a Percent control [3] of 92%. It also gave a Percent control [4] of 100, a Percent control [5] of 41% and a Percent control ([6]; MUSK, 10 μM) of 97%. For the same compound, the Percent control ([7]; EPHA7, 10 μM) was 67%, the Percent control ([8]; FGFR4, 10 μM) was 99% and the Percent control [9] was 98%. For the same compound, the Percent control ([10]; TRKB, 10 μM) was 95%, the Percent control ([11]; FES, 10 μM) was 98% and the Percent control ([12]; EPHA2, 10 μM) was 93%. It also gave a Percent control [13] of 76%.
For `Cc1ccc(NC(=O)c2ccc(CN3CCN(C)CC3)cc2)cc1Nc1nccc(-c2cccnc2)n1` [Imatinib, reference compound], the Percent control ([1]; SRMS, 10 μM) was 100%, the Percent control ([2]; FAK, 10 μM) was 100% and the remaining binding at 10 µM [3] was 100%. It also gave a Percent control ([4]; TNK2, 10 μM) of 100%, a Percent control [5] of 4.9% and a Percent control ([6]; MUSK, 10 μM) of 100%. For the same compound, the Percent control ([7]; EPHA7, 10 μM) was 100%, the Percent control ([8]; FGFR4, 10 μM) was 100% and the Percent control [9] was 100%. It also gave a Percent control ([10]; TRKB, 10 μM) of 100%, a Percent control ([11]; FES, 10 μM) of 100% and a Percent control ([12]; EPHA2, 10 μM) of 100%. It also gave a Percent control [13] of 100%.
